Test results taken from patent US20240335462A1, “SULFUR/PHOSPHORUS-CONTAINING ARYL COMPOUND AND APPLICATION THEREOF” (MEDSHINE DISCOVERY INC., priority 2021, published 2024).
Marks after values point to notes of the source that are not given here.

System: IL-23-induced psoriasis-like skin lesions
Assay: Mouse psoriasis-like model induced by IL-23
Format: in vivo, C57BL/6 mice
Set-up: Total score for epidermal hyperplasia of ear pinnae / AUC of total score for epidermal hyperplasia of ear pinnae / Pathological score: Degree of keratinization / Pathological score: Epidermal thickness / Pathological score: Dermal thickness / Pathological score: Inflammatory cell infiltration / Comprehensive pathological score: scale not given here
Conditions: for AUC of total score for epidermal hyperplasia of ear pinnae: Day 0 to Day 8; for Comprehensive pathological score / Pathological score: Degree of keratinization / Pathological score: Dermal thickness / Pathological score: Epidermal thickness / Pathological score: Inflammatory cell infiltration: right ear H&E sections
Excerpt: The purpose of this experiment was to evaluate the prophylactic and therapeutic effect of the test substance on IL-23-induced psoriasis-like skin lesions in mice by intradermal injection of IL-23 into the ear pinnae in a psoriasis-like skin lesion model.
Female C57BL/6 mice of qualified body weight were randomly divided into groups, with 6 mice per group. The grouping and administration information was as follows. The groups were: blank control group, model group, positive control Ustekinumab (5 mg/kg) group, WX-011A hydrochloride (30, 50 mg/kg) group, and WX-020 sulfate (30, 50 mg/kg) group. Except for the blank control group, the animals in the other groups received an intradermal injection of IL-23 (3 μg/10 μL/mouse/day, QD) in the right ear for 8 consecutive days (Day 0 to Day 7). The blank control group received an intradermal injection of an equal volume of saline solution (10 μL/mouse/day, QD) in the right ear for 8 consecutive days (Day 0 to Day 7). Concurrent with model induction, the solvent or test drug was orally administered twice a day (Bid) at 6-hour intervals for 8 consecutive days (Day 0 to Day 7). The positive control was subcutaneously injected on Day 0 and Day 3 (a total of 2 doses). During the administration period, the body weight of the animals was monitored every two days. On Day 0, Day 2, Day 4, Day 6 (all before IL-23 injection), and Day 8, the thickness of the right ear of the mice was measured, and the appearance of the ear pinnae was observed and scored.
The compounds were all prepared into a clear solution with 10% DMSO+[…] as a solvent for PO (oral gavage) administration. Administration volume parameters: 10 mL/kg based on the body weight of the mice.
After grouping, IL-23 (3 μg/10 μL/mouse/day, QD) was injected intradermally into the right ears of the mice for 8 consecutive days (Day 0 to Day 7). Measurements of the thickness of the right ear and observations and scoring of the appearance of the ear pinnae were performed on Day 0, Day 2, Day 4, Day 6 (all before IL-23 injection), and Day 8. At the end of the experiment (Day 8), the left ear tissues of the mice from groups G4 to G10 (3 animals per group at each time point) were collected. The right ear, which had been modeled, was excised, an 8 mm ear punch was taken along the edge of the pinna, and its weight was measured. The excised right ear tissues were fixed in formalin for histopathological examination (H&E staining).
Concurrent with model induction, corresponding drug treatment was given for administration. Except for the positive control drug (Ustekinumab), which was subcutaneously injected on Day 0 and Day 3 (once a day), control and test drugs for each dose group were orally administered by gavage twice a day at 6-hour intervals for 8 consecutive days (Day 0 to Day 7).
The pathological scoring of mouse ear tissue sections was conducted according to the criteria in Table 33.
The experimental data are represented as Mean±SD; statistical analysis was performed using IBM SPSS Statistics 21, with p<0.05 considered to indicate a statistically significant difference between the two groups. The effect of the test substance on the thickness of mouse ears in the IL-23 induced mouse pinna epidermal hyperplasia model is shown in Table 34. The effect of the test substance on the total score and AUC for […] induced mouse pinna epidermal hyperplasia is shown in Table 35.

Structure (SMILES): CNC(=O)c1nnc(NC(=O)C2CC2)cc1Nc1cccc(-c2ncc(S(=N)(=O)C(C)C)cn2)c1OC.Cl (single isomer, unassigned) [Hydrochloride of WX-011A]
- Ear thickness (mm) (30 mg/kg PO BID, Day 0): 0.199 mm
- Total score for epidermal hyperplasia of ear pinnae (30 mg/kg PO BID, Day 0): 0.00
- AUC of total score for epidermal hyperplasia of ear pinnae (30 mg/kg PO BID): 3.17**
- Ear thickness (mm) (30 mg/kg PO BID, Day 2): 0.274* mm
- Total score for epidermal hyperplasia of ear pinnae (30 mg/kg PO BID, Day 2): 0.00
- Ear thickness (mm) (30 mg/kg PO BID, Day 4): 0.299* mm
- Total score for epidermal hyperplasia of ear pinnae (30 mg/kg PO BID, Day 4): 0.33*
- Ear thickness (mm) (30 mg/kg PO BID, Day 6): 0.297** mm
- Total score for epidermal hyperplasia of ear pinnae (30 mg/kg PO BID, Day 6): 0.67**
- Ear thickness (mm) (30 mg/kg PO BID, Day 8): 0.301** mm
- Total score for epidermal hyperplasia of ear pinnae (30 mg/kg PO BID, Day 8): 1.17**
- Comprehensive pathological score (30 mg/kg PO BID): 1.17**
- Pathological score: Degree of keratinization (30 mg/kg PO BID): 0.17**
- Pathological score: Dermal thickness (30 mg/kg PO BID): 0.17
- Pathological score: Epidermal thickness (30 mg/kg PO BID): 0.67**
- Pathological score: Inflammatory cell infiltration (30 mg/kg PO BID): 0.17**
- Ear thickness (mm) (50 mg/kg PO BID, Day 0): 0.197 mm
- Total score for epidermal hyperplasia of ear pinnae (50 mg/kg PO BID, Day 0): 0.00
- AUC of total score for epidermal hyperplasia of ear pinnae (50 mg/kg PO BID): 2.67**
- Ear thickness (mm) (50 mg/kg PO BID, Day 2): 0.279^p=0.081 mm
- Total score for epidermal hyperplasia of ear pinnae (50 mg/kg PO BID, Day 2): 0.00
- Ear thickness (mm) (50 mg/kg PO BID, Day 4): 0.291 * mm
- Total score for epidermal hyperplasia of ear pinnae (50 mg/kg PO BID, Day 4): 0.17**
- Ear thickness (mm) (50 mg/kg PO BID, Day 6): 0.299** mm
- Total score for epidermal hyperplasia of ear pinnae (50 mg/kg PO BID, Day 6): 0.67**
- Ear thickness (mm) (50 mg/kg PO BID, Day 8): 0.300** mm
- Total score for epidermal hyperplasia of ear pinnae (50 mg/kg PO BID, Day 8): 1.00*
- Comprehensive pathological score (50 mg/kg PO BID): 1.83**
- Pathological score: Degree of keratinization (50 mg/kg PO BID): 0.33**
- Pathological score: Dermal thickness (50 mg/kg PO BID): 0.50
- Pathological score: Epidermal thickness (50 mg/kg PO BID): 0.50**
- Pathological score: Inflammatory cell infiltration (50 mg/kg PO BID): 0.50**

Structure (SMILES): CNC(=O)c1cnc(NC(=O)C2CC2)cc1Nc1cccc(-c2ccc(S(=O)(=O)C(C)C)cn2)c1OC.O=S(=O)(O)O [Sulfate of WX-020]
- Ear thickness (mm) (30 mg/kg PO BID, Day 0): 0.197 mm
- Total score for epidermal hyperplasia of ear pinnae (30 mg/kg PO BID, Day 0): 0.00
- AUC of total score for epidermal hyperplasia of ear pinnae (30 mg/kg PO BID): 7.67
- Ear thickness (mm) (30 mg/kg PO BID, Day 2): 0.283 mm
- Total score for epidermal hyperplasia of ear pinnae (30 mg/kg PO BID, Day 2): 0.00
- Ear thickness (mm) (30 mg/kg PO BID, Day 4): 0.311 mm
- Total score for epidermal hyperplasia of ear pinnae (30 mg/kg PO BID, Day 4): 0.50*
- Ear thickness (mm) (30 mg/kg PO BID, Day 6): 0.351** mm
- Total score for epidermal hyperplasia of ear pinnae (30 mg/kg PO BID, Day 6): 2.5
- Ear thickness (mm) (30 mg/kg PO BID, Day 8): 0.343^p=0.082 mm
- Total score for epidermal hyperplasia of ear pinnae (30 mg/kg PO BID, Day 8): 1.67*
- Comprehensive pathological score (30 mg/kg PO BID): 4.17**
- Pathological score: Degree of keratinization (30 mg/kg PO BID): 0.83**
- Pathological score: Dermal thickness (30 mg/kg PO BID): 1.33
- Pathological score: Epidermal thickness (30 mg/kg PO BID): 0.83**
- Pathological score: Inflammatory cell infiltration (30 mg/kg PO BID): 1.17**
- Ear thickness (mm) (50 mg/kg PO BID, Day 0): 0.195 mm
- Total score for epidermal hyperplasia of ear pinnae (50 mg/kg PO BID, Day 0): 0.00
- AUC of total score for epidermal hyperplasia of ear pinnae (50 mg/kg PO BID): 5.00*
- Ear thickness (mm) (50 mg/kg PO BID, Day 2): 0.289 mm
- Total score for epidermal hyperplasia of ear pinnae (50 mg/kg PO BID, Day 2): 0.00
- Ear thickness (mm) (50 mg/kg PO BID, Day 4): 0.303* mm
- Total score for epidermal hyperplasia of ear pinnae (50 mg/kg PO BID, Day 4): 0.50*
- Ear thickness (mm) (50 mg/kg PO BID, Day 6): 0.311** mm
- Total score for epidermal hyperplasia of ear pinnae (50 mg/kg PO BID, Day 6): 1.33*
- Ear thickness (mm) (50 mg/kg PO BID, Day 8): 0.317** mm
- Total score for epidermal hyperplasia of ear pinnae (50 mg/kg PO BID, Day 8): 1.33**
- Comprehensive pathological score (50 mg/kg PO BID): 2.17**
- Pathological score: Degree of keratinization (50 mg/kg PO BID): 0.33**
- Pathological score: Dermal thickness (50 mg/kg PO BID): 0.50
- Pathological score: Epidermal thickness (50 mg/kg PO BID): 0.67**
- Pathological score: Inflammatory cell infiltration (50 mg/kg PO BID): 0.67**
